Measurements as given in ChEMBL document CHEMBL5346964, “Discovery of LNP1892: A Precision Calcimimetic for the Treatment of Secondary Hyperparathyroidism” (J Med Chem, 2023).

How the values were obtained:
[1] = biological target: T1, Extracellular calcium-sensing receptor (Homo sapiens, UniProt P41180); assay: Agonist activity at human CaSR expresssed in HEK293 cells in presence of glucose by Fluo4NW dye based FLIPR assay; assay type: functional, cell-based; details: read-out: EC50
T1 sequence (P41180 whole entry): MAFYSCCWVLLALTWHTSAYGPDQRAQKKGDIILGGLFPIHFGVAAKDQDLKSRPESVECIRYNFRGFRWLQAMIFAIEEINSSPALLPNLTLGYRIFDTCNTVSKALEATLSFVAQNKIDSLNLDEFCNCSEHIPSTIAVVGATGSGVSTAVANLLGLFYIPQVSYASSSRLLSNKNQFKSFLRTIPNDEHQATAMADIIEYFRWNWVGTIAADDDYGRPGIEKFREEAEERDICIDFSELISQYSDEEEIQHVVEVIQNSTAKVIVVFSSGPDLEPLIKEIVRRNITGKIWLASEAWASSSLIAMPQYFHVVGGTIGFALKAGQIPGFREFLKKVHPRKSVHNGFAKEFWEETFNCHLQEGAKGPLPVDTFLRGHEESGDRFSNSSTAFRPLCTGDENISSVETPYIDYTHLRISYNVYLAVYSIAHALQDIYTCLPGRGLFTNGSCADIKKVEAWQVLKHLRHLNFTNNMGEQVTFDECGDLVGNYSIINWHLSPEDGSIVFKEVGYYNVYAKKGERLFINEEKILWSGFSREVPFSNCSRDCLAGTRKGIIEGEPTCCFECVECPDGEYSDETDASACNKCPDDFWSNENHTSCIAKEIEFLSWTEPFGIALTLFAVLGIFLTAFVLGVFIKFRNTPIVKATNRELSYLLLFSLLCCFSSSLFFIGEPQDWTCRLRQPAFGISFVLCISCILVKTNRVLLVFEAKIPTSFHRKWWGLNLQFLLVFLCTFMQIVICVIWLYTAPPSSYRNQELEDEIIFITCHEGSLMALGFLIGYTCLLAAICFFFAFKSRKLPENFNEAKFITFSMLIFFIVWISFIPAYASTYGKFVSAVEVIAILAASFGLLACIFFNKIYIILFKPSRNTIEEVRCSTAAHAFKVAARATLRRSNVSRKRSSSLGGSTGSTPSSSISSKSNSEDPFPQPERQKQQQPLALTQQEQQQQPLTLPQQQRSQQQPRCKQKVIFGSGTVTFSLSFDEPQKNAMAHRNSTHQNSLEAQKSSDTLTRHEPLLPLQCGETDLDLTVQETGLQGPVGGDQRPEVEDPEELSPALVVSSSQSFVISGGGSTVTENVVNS

[2] = biological target: T2, hERG (Homo sapiens, UniProt Q12809); assay: (§1) Inhibition of hERG at 10 uM relative to control; assay type: toxicity
[3] = biological target: T3, CYP2D6 (Homo sapiens, UniProt P10635); assay: Inhibition of CYP2D6 in human liver microsomes at 1 uM preincubated for 5 mins followed by NADPH addition by LC-MS/MS analysis relative to control; assay type: ADME, Microsome
[4] = biological target: T2, hERG; assay: (§2) Inhibition of hERG at 1 uM relative to control; assay type: toxicity
[5] = biological target: T3, CYP2D6; assay: Inhibition of CYP2D6 in human liver microsomes at 10 uM preincubated for 5 mins followed by NADPH addition by LC-MS/MS analysis relative to control; assay type: ADME, Microsome
[6] = Microsomal stability in human liver microsomes assessed as parent compound remaining at 1 uM measured upto 30 mins in presence of NADPH by LC-MS/MS analysis; assay type: ADME, Microsome; details: for remaining at 0.5 h, 1 µM: liver microsomes, read-out: Stability; for Stability: microsomes, 0.5 h, 1 µM
[7] = Microsomal stability in rat liver microsomes assessed as parent compound remaining at 1 uM measured upto 30 mins in presence of NADPH by LC-MS/MS analysis; assay type: ADME, Microsome; details: read-out: Stability
[8] = biological target: T4, Voltage-gated inwardly rectifying potassium channel KCNH2 (Homo sapiens, UniProt Q12809); assay: as §1; assay type: toxicity; details: 10 µM
[9] = biological target: T4, Voltage-gated inwardly rectifying potassium channel KCNH2; assay: as §2; assay type: toxicity; details: 1 µM
[10] = Tmax in Sprague-Dawley rat at 1 mg/kg, iv measured upto 24 hrs by LC-MS/MS analysis; assay type: ADME, organism-based; details: in vivo
[11] = Volume of distribution at steady state in Sprague-Dawley rat at 1 mg/kg, iv measured upto 24 hrs by LC-MS/MS analysis; assay type: ADME, organism-based; details: in vivo, read-out: Vdss
[12] = Cmax in Sprague-Dawley rat at 1 mg/kg, iv measured upto 24 hrs by LC-MS/MS analysis; assay type: ADME, organism-based; design: dose 1 mg/kg, time < 24 hrs, route iv; details: in vivo
[13] = Half life in Sprague-Dawley rat at 1 mg/kg, iv measured upto 24 hrs by LC-MS/MS analysis; assay type: ADME, organism-based; details: in vivo
[14] = Cmax in Sprague-Dawley rat at 10 mg/kg, po measured upto 24 hrs by LC-MS/MS analysis; assay type: ADME, organism-based; design: time < 24 hrs, dose 10 mg/kg, route po; details: in vivo
[15] = Effect on parathyroid hormone in overnight fasted Sprague-Dawley rat assessed as reduction in plasma PTH level at 30 mg/kg, po measured after 1 hrs of post treatment by sandwich ELISA analysis; assay type: functional; design: scale not given: the % may be the effect or the level left
[16] = Effect on parathyroid hormone in overnight fasted Sprague-Dawley rat assessed as reduction in plasma PTH level at 10 mg/kg, po measured after 2 hrs of post treatment by sandwich ELISA analysis; assay type: functional; design: scale not given: the % may be the effect or the level left
[17] = AUClast in Sprague-Dawley rat at 10 mg/kg, po measured upto 24 hrs by LC-MS/MS analysis; assay type: ADME, organism-based; design: dose 10 mg/kg, time < 24 hrs, route po; details: in vivo
[18] = Effect on parathyroid hormone in overnight fasted Sprague-Dawley rat assessed as reduction in plasma PTH level at 10 mg/kg, po measured after 4 hrs of post treatment by sandwich ELISA analysis (reference value: 18%); assay type: functional; design: scale not given: the % may be the effect or the level left
[19] = AUClast in Sprague-Dawley rat at 1 mg/kg, iv measured upto 24 hrs by LC-MS/MS analysis; assay type: ADME, organism-based; design: dose 1 mg/kg, time < 24 hrs, route iv; details: in vivo
[20] = Oral bioavailability in Sprague-Dawley rat at 10 mg/kg measured upto 24 hrs by LC-MS/MS analysis; assay type: ADME, organism-based; details: in vivo
[21] = Clearance in Sprague-Dawley rat at 1 mg/kg, iv measured upto 24 hrs by LC-MS/MS analysis; assay type: ADME, organism-based; details: in vivo
[22] = Effect on parathyroid hormone in overnight fasted Sprague-Dawley rat plasma assessed as reduction in PTH level at 30 mg/kg, po measured after 0.5 hrs of post treatment by sandwich ELISA analysis; assay type: functional; design: scale not given: the % may be the effect or the level left
[23] = Effect on parathyroid hormone in overnight fasted Sprague-Dawley rat assessed as reduction in plasma PTH level at 30 mg/kg, po measured after 4 hrs of post treatment by sandwich ELISA analysis; assay type: functional; design: scale not given: the % may be the effect or the level left
[24] = Tmax in Sprague-Dawley rat at 10 mg/kg, po measured upto 24 hrs by LC-MS/MS analysis; assay type: ADME, organism-based; details: in vivo
[25] = Effect on parathyroid hormone in overnight fasted Sprague-Dawley rat assessed as reduction in plasma PTH level at 10 mg/kg, po measured after 0.5 hrs of post treatment by sandwich ELISA analysis; assay type: functional; design: scale not given: the % may be the effect or the level left
[26] = Effect on parathyroid hormone in overnight fasted Sprague-Dawley rat assessed as reduction in plasma PTH level at 10 mg/kg, po measured after 1 hrs of post treatment by sandwich ELISA analysis; assay type: functional; design: scale not given: the % may be the effect or the level left
[27] = Effect on parathyroid hormone in overnight fasted Sprague-Dawley rat assessed as reduction in plasma PTH level at 30 mg/kg, po measured after 2 hrs of post treatment by sandwich ELISA analysis; assay type: functional; design: scale not given: the % may be the effect or the level left
[28] = Clearance in Sprague-Dawley rat at 0.3 mg/kg, iv measured upto 24 hrs by LC-MS/MS analysis; details: in vivo
[29] = Half life in Sprague-Dawley rat at 1 mg/kg, po measured upto 24 hrs by LC-MS/MS analysis; details: in vivo
[30] = AUClast in Sprague-Dawley rat at 1 mg/kg, po measured upto 24 hrs by LC-MS/MS analysis; assay type: ADME, organism-based; design: dose 1 mg/kg, time < 24 hrs, route po; details: in vivo
[31] = Volume of distribution at steady state in Sprague-Dawley rat at 0.3 mg/kg, iv measured upto 24 hrs by LC-MS/MS analysis; details: in vivo
[32] = in vivo; details: Sprague-Dawley, rat, po, 1 mg/kg
Description: Tmax in Sprague-Dawley rat at 1 mg/kg, po measured upto 24 hrs by LC-MS/MS analysis

[33] = in vivo; details: Sprague-Dawley, rat, iv, 0.3 mg/kg
Description: Cmax in Sprague-Dawley rat at 0.3 mg/kg, iv measured upto 24 hrs by LC-MS/MS analysis

[34] = AUClast in Sprague-Dawley rat at 0.3 mg/kg, iv measured upto 24 hrs by LC-MS/MS analysis; assay type: ADME, organism-based; design: dose 0.3 mg/kg, time < 24 hrs, route iv; details: in vivo
[35] = Half life in Sprague-Dawley rat at 0.3 mg/kg, iv measured upto 24 hrs by LC-MS/MS analysis; details: in vivo
[36] = in vivo; details: Sprague-Dawley, rat, po, 1 mg/kg; remark: listed apart in the source
Description: Cmax in Sprague-Dawley rat at 1 mg/kg, po measured upto 24 hrs by LC-MS/MS analysis

[37] = system: Rattus norvegicus; assay: Effect on parathyroid hormone in po dosed overnight fasted Sprague-Dawley rat assessed as reduction in plasma PTH level measured after 0.5 to 6 hrs of post treatment by sandwich ELISA analysis; assay type: functional, organism-based; details: dose 3-30 mg/kg, time 0.5-6 hrs

T4 sequence (Q12809 whole entry): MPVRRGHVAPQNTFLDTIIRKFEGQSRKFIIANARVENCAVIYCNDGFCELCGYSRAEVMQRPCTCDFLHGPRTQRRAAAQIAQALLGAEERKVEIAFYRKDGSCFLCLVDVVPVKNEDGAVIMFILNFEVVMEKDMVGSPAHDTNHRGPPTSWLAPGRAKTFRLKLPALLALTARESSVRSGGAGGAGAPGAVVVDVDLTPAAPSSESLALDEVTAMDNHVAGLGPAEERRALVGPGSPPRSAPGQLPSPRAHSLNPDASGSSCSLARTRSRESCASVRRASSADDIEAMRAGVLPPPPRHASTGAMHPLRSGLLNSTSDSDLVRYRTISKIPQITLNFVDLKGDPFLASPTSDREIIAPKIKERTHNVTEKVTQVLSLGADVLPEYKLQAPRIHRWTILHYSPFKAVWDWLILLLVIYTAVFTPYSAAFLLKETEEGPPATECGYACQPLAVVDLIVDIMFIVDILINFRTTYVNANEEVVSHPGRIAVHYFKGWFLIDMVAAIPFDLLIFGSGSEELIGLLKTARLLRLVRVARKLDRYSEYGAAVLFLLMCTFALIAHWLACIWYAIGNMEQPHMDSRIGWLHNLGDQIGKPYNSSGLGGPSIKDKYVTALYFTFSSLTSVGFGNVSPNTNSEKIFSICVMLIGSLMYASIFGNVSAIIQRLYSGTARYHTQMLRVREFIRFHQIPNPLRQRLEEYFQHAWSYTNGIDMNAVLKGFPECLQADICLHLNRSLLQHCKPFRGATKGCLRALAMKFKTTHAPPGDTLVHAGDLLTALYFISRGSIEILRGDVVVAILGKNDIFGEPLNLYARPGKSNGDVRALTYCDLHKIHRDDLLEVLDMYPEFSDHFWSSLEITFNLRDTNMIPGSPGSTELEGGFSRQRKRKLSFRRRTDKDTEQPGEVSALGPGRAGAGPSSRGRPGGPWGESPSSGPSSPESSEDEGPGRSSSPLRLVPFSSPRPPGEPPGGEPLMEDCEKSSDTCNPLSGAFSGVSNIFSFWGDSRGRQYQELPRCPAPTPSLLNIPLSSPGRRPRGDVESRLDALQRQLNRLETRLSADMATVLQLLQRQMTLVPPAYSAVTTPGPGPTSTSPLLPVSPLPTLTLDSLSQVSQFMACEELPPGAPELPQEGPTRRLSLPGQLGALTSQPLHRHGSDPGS
T2 sequence (Q12809 whole entry): as above
T3 sequence (P10635 whole entry): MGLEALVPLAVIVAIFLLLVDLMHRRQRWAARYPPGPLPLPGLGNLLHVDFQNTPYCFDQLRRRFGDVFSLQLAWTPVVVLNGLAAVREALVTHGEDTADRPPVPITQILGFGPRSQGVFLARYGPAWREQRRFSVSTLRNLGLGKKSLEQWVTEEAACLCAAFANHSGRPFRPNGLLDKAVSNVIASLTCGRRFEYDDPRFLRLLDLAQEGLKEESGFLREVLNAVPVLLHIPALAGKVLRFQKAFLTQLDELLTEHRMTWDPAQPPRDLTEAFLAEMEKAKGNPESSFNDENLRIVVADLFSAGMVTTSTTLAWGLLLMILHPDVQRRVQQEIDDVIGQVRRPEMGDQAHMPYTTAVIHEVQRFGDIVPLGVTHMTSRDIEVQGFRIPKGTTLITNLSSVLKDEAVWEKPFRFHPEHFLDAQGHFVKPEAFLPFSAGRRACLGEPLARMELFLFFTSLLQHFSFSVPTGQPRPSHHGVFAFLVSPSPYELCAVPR

SMILES | EC50 [1] [nM] | inhibition at 1 µM [3] [%] | inhibition at 10 µM [5] [%] | remaining at 0.5 h, 1 µM [6] [%] | remaining at 0.5 h, 1 µM [7] [%] | inhibition at 10 µM [2] [%] | inhibition at 1 µM [4] [%] | also measured
C[C@@H](NCC1CNc2ccccc2O1)c1cccc2ccccc12 (stereo not given in full) | – | 94 | 94 | 18 | 0 | 97 | 19 | –
C[C@@H](NCC1CN(c2cccc(C(=O)O)c2)c2ccccc2O1)c1cccc2ccccc12 (mixture of isomers; form 1) | 32.8 | 27 | 41 | 49 | 36 | -8 | -1 | –
Cc1c(C(=O)O)cccc1N1CC(CN[C@H](C)c2cccc3ccccc23)Oc2ccccc21.Cl (mixture of isomers; form 1) | 47.5 | 26 | 43 | – | 45 | – | – | inhibition (INH) [8]: -5%; inhibition (INH) [9]: -8%; Stability [6]: 40%
C[C@@H](NCC1CN(C(=O)c2ccccc2)c2ccccc2O1)c1cccc2ccccc12 (mixture of isomers; form 1) | 21 | 7 | 72 | 3 | 0 | 52 | 16 | –
Cc1cc(C(=O)O)cc([C@@H]2C[C@H](CN[C@H](C)c3cccc4ccccc34)Oc3ccccc32)c1 | 8.3 | 0 | 33 | 80 | 25 | 6 | 0 | –
Cc1ccc(N2CC(CN[C@H](C)c3cccc4ccccc34)Oc3ccccc32)cc1C(=O)O (stereo not given in full) | – | – | – | – | – | – | – | Activity [37]: Dose-Dependent Effect

Further lines, with some results ahead:

EC50 [1] [nM] | inhibition at 1 µM [3] [%] | inhibition at 10 µM [5] [%] | remaining at 0.5 h, 1 µM [6] [%] | remaining at 0.5 h, 1 µM [7] [%] | SMILES | inhibition at 10 µM [2] [%] | inhibition at 1 µM [4] [%] | also measured
36.4 | 6 | 36 | 45 | 87 | C[C@@H](NCC1CN(c2cccc(OCC(=O)O)c2)c2ccccc2O1)c1cccc2ccccc12 (stereo not given in full) | 66 | 43 | –
49.5 | – | – | – | – | Cc1c(C(=O)O)cccc1N1CC(CN[C@H](C)c2cccc3ccccc23)Oc2ccccc21.Cl (mixture of isomers; form 2) | – | – | inhibition (INH) [8]: -16%; inhibition (INH) [9]: -28%; Stability [6]: 10%
3.7 | 7 | 32 | 74 | 62 | Cc1ccc([C@H]2C[C@@H](CN[C@H](C)c3cccc4ccccc34)Oc3ccccc32)cc1C(=O)O | 1 | 9 | –
– | 0 | 0 | 77 | 88 | COc1ccc([C@@H]2C[C@H](CN[C@H](C)c3cccc4ccccc34)Oc3ccccc32)cc1C(=O)O | -4 | -3 | –
64.9 | 65 | 65 | 34 | 28 | C[C@@H](NCC1CN(c2ccc(C(=O)O)cc2)c2ccccc2O1)c1cccc2ccccc12 (stereo not given in full) | -43 | 5 | –
33.6 | 8 | 41 | 74 | 47 | Cc1ccc([C@@H]2C[C@@H](CN[C@H](C)c3cccc4ccccc34)Oc3ccccc32)cc1C(=O)O | -1 | 4 | –
7 | 44 | 47 | 45 | 55 | Cc1ccc(N2CC(CN[C@H](C)c3cccc4ccccc34)Oc3ccccc32)cc1C(=O)O.Cl (stereo not given in full) | 14 | 7 | Tmax [10]: 4.8 min; Vd [11]: 1 L/kg; Cmax [12]: 5 µM; half-life [13]: 3 h; Cmax [14]: 13 µM; Activity [15]: 97%; Activity [16]: 100%; AUC(0-t) at 24 h [17]: 55 µM·h; Activity [18]: 66%; AUC(0-t) at 24 h [19]: 7 µM·h; bioavailability [20]: 79%; clearance [21]: 5 mL/min/kg; Activity [22]: 100%; Activity [23]: 92%; Tmax [24]: 3 min; Activity [25]: 100%; Activity [26]: 86%; Activity [27]: 100%
– | – | – | 68 | 34 | C[C@@H](N[C@H]1CCN(c2ccc(CC(=O)O)cc2)C1)c1cccc2ccccc12 [EVOCALCET] | – | – | clearance at 24 h [28]: 1.67 mL/min/kg; half-life at 24 h [29]: 6.13 h; AUC(0-t) at 24 h [30]: 23 µM·h; Vd at 24 h [31]: 0.591 L/kg; Tmax at 24 h [32]: 0.81 h; Cmax at 24 h [33]: 0.27 µM; AUC(0-t) at 24 h [34]: 8.03 µM·h; half-life at 24 h [35]: 7.32 h; Cmax at 24 h [36]: 5.84 µM
– | 7 | 36 | 80 | 52 | Cc1ccc(C(=O)O)cc1[C@@H]1C[C@H](CN[C@H](C)c2cccc3ccccc23)Oc2ccccc21 | 2 | 5 | –
